Article PMC11614110, “Crystal structure of a short-chain dehydrogenase from Burkholderia cenocepacia J2315 in complex with NADP^+ and benzoic acid” (Acta Crystallographica Section F: Structural Biology …, 2024)

Columns and labels:
[1] = biological target: T1, BcSDR (short-chain dehydrogenase reductase from B. cenocepacia J2315) (Burkholderia cenocepacia, UniProt B4EFS5); test: X-ray crystal structure, […] A; assay type: binding; details: pH 4.2, 290 K
T1 construct: gene BCAM2128; vector pBG1861; expressed in E. coli BL21(DE3) R3 Rosetta; homodimer
T1 sequence (B4EFS5 1-237): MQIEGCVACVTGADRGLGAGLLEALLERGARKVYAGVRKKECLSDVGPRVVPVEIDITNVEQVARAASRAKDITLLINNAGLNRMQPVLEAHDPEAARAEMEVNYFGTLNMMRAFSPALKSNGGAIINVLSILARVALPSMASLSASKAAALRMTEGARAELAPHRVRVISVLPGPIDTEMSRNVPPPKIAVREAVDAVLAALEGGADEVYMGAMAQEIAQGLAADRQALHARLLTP

[2] = biological target: the molecule itself; test: crystal structure; sitting-drop vapor diffusion, 290 K; 23.45 mg/ml protein, 5 mM NADP+; 40% PEG 300, 100 mM sodium phosphate dibasic/citric acid pH 4.2; space group P212121, two molecules per asymmetric unit; dimer assignment supported by PDBePISA

Molecule: NC(=O)c1ccc[n+]([C@@H]2O[C@H](COP(=O)(O)OP(=O)(O)OC[C@H]3O[C@@H](n4cnc5c(N)ncnc54)[C@H](OP(=O)(O)O)[C@@H]3O)[C@@H](O)[C@H]2O)c1 [NADP^+]
- X-ray crystal structure, 1.40 A ([1]; 5 mM NADP+ in co-crystallization drop, coenzyme site, both chains): The structure of BcSDR showed clear electron density for NADP^+ in the coenzyme-binding site

Molecule: O=C(O)c1ccccc1 [benzoic acid]
- X-ray crystal structure, 1.40 A ([1]; not added, co-purified ligand, active site, NADP+ bound): BcSDR co-crystallized with a molecule of benzoic acid bound in the active site

B1: short-chain dehydrogenase reductase (SDR) from Burkholderia cenocepacia J2315 (enzyme, Burkholderia cenocepacia (strain J2315))
chain: T1 sequence (B4EFS5 1-237)
notes: putative short-chain dehydrogenase reductase, Burkholderia cenocepacia J2315, UniProt B4EFS5; full-length gene stated to encode amino acids 1-237; Crystallised with NADP+ and a benzoic acid ligand; a phosphate ion lies at the dimer interface; also called BcSDR; His-BcSDR; source: Escherichia coli BL21(DE3) R3 Rosetta, purified (Ni2+ IMAC, SEC on Superdex 75); not shown: His6, N-terminal, kept
- binding result [2]: binds
